Data from US7968721B2, “Large-scale synthesis of selective androgen receptor modulators” (University of Tennessee Research Foundation, priority 2003, dated 2011).

Assays:
spermatogenesis = conditions: weekly intramuscular injections, men receiving therapy; cited from earlier work
androgen receptor = test system: androgen receptor
Text: Assays to determine whether the compounds of the present invention are AR agonists or antagonists are well known to a person skilled in the art. For example, AR agonistic activity can be determined by monitoring the ability of the SARM compounds to maintain and/or stimulate the growth of AR containing tissue such as prostate and seminal vesicles, as measured by weight. AR antagonistic activity can be determined by monitoring the ability of the SARM compounds to inhibit the growth of AR containing tissue.

Row | Compound | men with azoospermia or severe oligospermia (less than 3 million sperm per ml) and infertility (spermatogenesis) | action at the androgen receptor in vivo (androgen receptor) | anabolic and androgenic effects in vivo (androgen receptor)
1 | CCCCCCC(=O)O[C@H]1CC[C@H]2[C@@H]3CCC4=CC(=O)CC[C@]4(C)[C@H]3CC[C@]12C [testosterone enanthate] | 98% |  | 
2 | CC(=O)Nc1ccc(OC[C@](C)(O)C(=O)Nc2ccc([N+](=O)[O-])c(C(F)(F)F)c2)cc1 [Compound (1), 3-[4-(acetylamino)phenoxy]-2-Hydroxy-2-methyl-N-[3trifluoromethyl-4-nitro-phenyl)-proprionamide] |  | partial agonist | strong anabolic and weakly androgenic effects
